Measured values taken from PubChem BioAssay AID2060619 (Molecular Pharmacology Branch, DTP, NCI, 2025).
pIC50: −log10 of the molar value. Where “and” joins values, the source holds several entries; their conditions need not be identical. Identical values can stand only once.

Tested on: 323965-272-R-J2-PDC complex spheroid viability
Assay: Anticancer human tumor 323965-272-R-J2-PDC patient-derived pancreatic carcinoma cell line growth inhibition [CLK]
Settings: for viability, T/C: stronger effect = lower value
Text: A high-throughput screen of multi-cell type tumor spheroids was designed to identify active combinations of […] and targeted small molecules. Complex spheroids include a stromal component modeled by human endothelial cells (HUVEC) and fibroblasts modeled by human mesenchymal stem cells (MSCs). The concentration ranges selected for each drug and investigational agent were based upon clinically achievable concentrations if the clinical Cmax of the agent was known.
Compounds. The drugs and investigational agents: cirtuvivint (SM08502; NSC835563), CC-671 (NSC850746), vemurafenib (NSC761431), tapotoclax (NSC804041), sotorasib (NSC818433), adagrasib (NSC831453), MRTX-1133 (NSC836407), BAY2416964 (NSC825713), copanlisib (NSC816437), inavolisib (NSC800729), abemaciclib (NSC768073), osimertinib (NSC779217), entinostat (NSC756642), eltanexor (KPT-8602, NSC794443), venetoclax (NSC766270), ceralasertib (NSC777638), bortezomib (NSC756655), olaparib (NSC753686), talazoparib (NSC767125), alisertib (NSC759677), peposertib (NSC802822), gemcitabine (NSC613327), 5-fluorouracil (NSC19893), SN-38 (NSC673596), oxaliplatin (NSC266046), paclitaxel (NSC125973), and doxorubicin (NSC123127), were obtained from the National Cancer Institute (NCI) Developmental Therapeutics Program Chemical Repository. The FDA-approved anticancer drug set is available from the Developmental Therapeutics Program at https://dtp.cancer.gov/organization/dscb/obtaining/available plates.htm. […] The stock solutions were prepared in dimethyl sulfoxide (DMSO, Sigma-Aldrich, St. Louis, MO, cat. D2650), except for the platinum complexes which were prepared in saline (Quality Biological, Gaithersburg, MD, cat. 114-055-101), at 800-fold the tested concentration and stored at -70 degrees C prior to their use. All drugs and investigational agents were tested over a range starting from a high concentration at or near the clinical Cmax and decreasing in half-log increments. If the clinical Cmax for an agent had not been determined, the highest concentration tested was 10 microM.
Cell Culture. All cells were maintained in an incubator at 37 degrees C and 5% CO2 with 95% humidity. The PDC lines were cultured according to standard operating procedures established by the NCI PDMR. Briefly, all PDCs were thawed and cultured in Matrigel-coated flasks prepared with a working solution of 1X Ham's F-12 nutrient mix, without supplementation (Invitrogen, Waltham, MA, cat. 11765054), 100 U/mL penicillin-streptomycin (Invitrogen, cat. 15140122), and 2.5% Matrigel (Corning Inc., Corning, NY, cat. 354248) for the first three passages. The 947758-054-R-J2-PDC line was cultured in 6B/Colon 1A media, which includes advanced DMEM/F-12 (Thermo Fisher Scientific, cat. 12634028), 10 mM HEPES (Thermo Fisher Scientific, cat. 15630080), 1X GlutaMAX supplement (Thermo Fisher Scientific, cat. 35050061), 0.1 mg/mL primocin (InvivoGen, cat. ant-pm-2), 10% defined fetal bovine serum, heat inactivated (HyClone Laboratories Inc., cat. SH30070.03HI), 1.25 mM N-Acetyl-L-cysteine (Sigma-Aldrich, cat. A9165), 10 mM nicotinamide (Sigma-Aldrich, cat. N0636), 1X B-27 supplement (Thermo Fisher Scientific, cat. 17504044), 1X N-2 supplement (Thermo Fisher Scientific, cat. 17502048), and 10 microM Y-27632 dihydrochloride (Tocris Bioscience, cat. 1254). The 876862-298-R-J1-PDC was cultured in 6E media, which includes all 6B/Colon 1A media components plus 50% L-WRN conditioned media (ATCC, cat. CRL-3276), 50 ng/mL recombinant human EGF recombinant protein (hEGF; Thermo Fisher Scientific, cat. PHG0311), 10 ng/mL recombinant human fibroblast growth factor 10 (hGFG-10; PeproTech, cat. 100-26), 1 ng/mL recombinant human fibroblast growth factor 2 (hFGF-2; PeproTech, cat. 100-18B), and 1 µM prostaglandin E2 (PGE2; Tocris, cat. 2296). The 227483-062-R1-J1-PDC line was cultured in Panc media, containing all 6E components except hFGF-2, with the addition of 500 nM SB-431542 (Selleckchem, cat. S1067) and 10 nM gastrin (Tocris, cat. 3006). […]

[1] = curve of first compound, second compound 0.0316 µM
[2] = curve of first compound, second compound 0.1 µM
[3] = curve of first compound, second compound 0.316 µM
[4] = curve of first compound, second compound 1 µM
[5] = curve of first compound, second compound 3.16 µM
[6] = curve of first compound, second compound 10 µM
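Note: spheroids exposed to agents for seven days before readout.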
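Throughout, for viability, T/C: percent of DMSO vehicle control wells so 100% = untreated growth.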

CC(C)CC(NC(=O)C(Cc1ccccc1)NC(=O)c1cnccn1)B(O)O (stereo unspecified) + CN1CCN(c2cc(C(=O)Nc3cc4cc(-c5cnn(C)c5)ccc4cn3)ccn2)CC1
pIC50 [1]: 8.38 | pIC50 [2]: 8.38 | pIC50 [3]: > 9.02 | pIC50 [4]: > 9.02 | pIC50 [5]: > 9.02 | pIC50 [6]: > 9.02 | viability, T/C (second compound 0.0316 µM, first compound 0.000949 µM): 102% | viability, T/C (second compound 0.0316 µM, first compound 0.003 µM): 67.1% | viability, T/C (second compound 0.0316 µM, first compound 0.00949 µM): 5.27% | viability, T/C (second compound 0.0316 µM, first compound 0.03 µM): 0.67% | viability, T/C (second compound 0.0316 µM, first compound 0.0949 µM): 0.27% | viability, T/C (second compound 0.0316 µM, first compound 0.3 µM): 0.2% | viability, T/C (second compound 0.1 µM, first compound 0.000949 µM): 70.2% | viability, T/C (second compound 0.1 µM, first compound 0.003 µM): 67.7% | viability, T/C (second compound 0.1 µM, first compound 0.00949 µM): 4.08% | viability, T/C (second compound 0.1 µM, first compound 0.03 µM): 0.54% | viability, T/C (second compound 0.1 µM, first compound 0.0949 µM): 0.24% | viability, T/C (second compound 0.1 µM, first compound 0.3 µM): 0.21% | viability, T/C (second compound 0.316 µM, first compound 0.000949 µM): 27.6% | viability, T/C (second compound 0.316 µM, first compound 0.003 µM): 27.3% | viability, T/C (second compound 0.316 µM, first compound 0.00949 µM): 2.6% | viability, T/C (second compound 0.316 µM, first compound 0.03 µM): 0.27% | viability, T/C (second compound 0.316 µM, first compound 0.0949 µM): 0.18% | viability, T/C (second compound 0.316 µM, first compound 0.3 µM): 0.3% | viability, T/C (second compound 1 µM, first compound 0.000949 µM): 5.63% | viability, T/C (second compound 1 µM, first compound 0.003 µM): 1.53% | viability, T/C (second compound 1 µM, first compound 0.00949 µM): 0.21% | viability, T/C (second compound 1 µM, first compound 0.03 µM): 0.19% | viability, T/C (second compound 1 µM, first compound 0.0949 µM): 0.2% | viability, T/C (second compound 1 µM, first compound 0.3 µM): 1.89% | viability, T/C (second compound 3.16 µM, first compound 0.000949 µM): 5.74% | viability, T/C (second compound 3.16 µM, first compound 0.003 µM): 2.25% | viability, T/C (second compound 3.16 µM, first compound 0.00949 µM): 1.98% | viability, T/C (second compound 3.16 µM, first compound 0.03 µM): 0.31% | viability, T/C (second compound 3.16 µM, first compound 0.0949 µM): 0.19% | viability, T/C (second compound 3.16 µM, first compound 0.3 µM): 2.14% | viability, T/C (second compound 10 µM, first compound 0.000949 µM): 4.58% | viability, T/C (second compound 10 µM, first compound 0.003 µM): 2.17% | viability, T/C (second compound 10 µM, first compound 0.00949 µM): 0.45% | viability, T/C (second compound 10 µM, first compound 0.03 µM): 0.32% | viability, T/C (second compound 10 µM, first compound 0.0949 µM): 5.38% | viability, T/C (second compound 10 µM, first compound 0.3 µM): 2.98%

CCCS(=O)(=O)Nc1ccc(F)c(C(=O)c2c[nH]c3ncc(-c4ccc(Cl)cc4)cc23)c1F
viability, T/C (compound 0.0316 µM): 105% and 112% | viability, T/C (compound 0.1 µM): 105% and 113% | viability, T/C (compound 0.316 µM): 112% and 123% | viability, T/C (compound 1 µM): 110% and 105% | viability, T/C (compound 3.16 µM): 116% and 99% | viability, T/C (compound 10 µM): 84.8% and 79.7% | pIC50 (curve of compound): < 5.00

C=CC(=O)N1CCN(c2nc(=O)n(-c3c(C)ccnc3C(C)C)c3nc(-c4c(O)cccc4F)c(F)cc23)C(C)C1 (stereo unspecified) + CN1CCN(c2cc(C(=O)Nc3cc4cc(-c5cnn(C)c5)ccc4cn3)ccn2)CC1
pIC50 [1]: < 5.00 | pIC50 [2]: > 7.50 | pIC50 [3]: > 7.50 | pIC50 [4]: > 7.50 | pIC50 [5]: > 7.50 | pIC50 [6]: > 7.50 | viability, T/C (second compound 0.0316 µM, first compound 0.0316 µM): 63% | viability, T/C (second compound 0.0316 µM, first compound 0.1 µM): 64.3% | viability, T/C (second compound 0.0316 µM, first compound 0.316 µM): 55% | viability, T/C (second compound 0.0316 µM, first compound 1 µM): 63.9% | viability, T/C (second compound 0.0316 µM, first compound 3.16 µM): 60.1% | viability, T/C (second compound 0.0316 µM, first compound 10 µM): 67.9% | viability, T/C (second compound 0.1 µM, first compound 0.0316 µM): 51.3% | viability, T/C (second compound 0.1 µM, first compound 0.1 µM): 45.8% | viability, T/C (second compound 0.1 µM, first compound 0.316 µM): 39.8% | viability, T/C (second compound 0.1 µM, first compound 1 µM): 57.4% | viability, T/C (second compound 0.1 µM, first compound 3.16 µM): 51.5% | viability, T/C (second compound 0.1 µM, first compound 10 µM): 46.6% | viability, T/C (second compound 0.316 µM, first compound 0.0316 µM): 17.9% | viability, T/C (second compound 0.316 µM, first compound 0.1 µM): 17.9% | viability, T/C (second compound 0.316 µM, first compound 0.316 µM): 16% | viability, T/C (second compound 0.316 µM, first compound 1 µM): 18.2% | viability, T/C (second compound 0.316 µM, first compound 3.16 µM): 17.4% | viability, T/C (second compound 0.316 µM, first compound 10 µM): 22.6% | viability, T/C (second compound 1 µM, first compound 0.0316 µM): 2.53% | viability, T/C (second compound 1 µM, first compound 0.1 µM): 3.03% | viability, T/C (second compound 1 µM, first compound 0.316 µM): 3.22% | viability, T/C (second compound 1 µM, first compound 1 µM): 3.64% | viability, T/C (second compound 1 µM, first compound 3.16 µM): 5.21% | viability, T/C (second compound 1 µM, first compound 10 µM): 5.85% | viability, T/C (second compound 3.16 µM, first compound 0.0316 µM): 2.77% | viability, T/C (second compound 3.16 µM, first compound 0.1 µM): 2.98% | viability, T/C (second compound 3.16 µM, first compound 0.316 µM): 3.49% | viability, T/C (second compound 3.16 µM, first compound 1 µM): 3.29% | viability, T/C (second compound 3.16 µM, first compound 3.16 µM): 5.91% | viability, T/C (second compound 3.16 µM, first compound 10 µM): 5.6% | viability, T/C (second compound 10 µM, first compound 0.0316 µM): 3.45% | viability, T/C (second compound 10 µM, first compound 0.1 µM): 3.36% | viability, T/C (second compound 10 µM, first compound 0.316 µM): 3.83% | viability, T/C (second compound 10 µM, first compound 1 µM): 3.24% | viability, T/C (second compound 10 µM, first compound 3.16 µM): 4.22% | viability, T/C (second compound 10 µM, first compound 10 µM): 4.53%
